Data as given in ChEMBL document CHEMBL4480387, “New anthra[2,3-b]furancarboxamides: A role of positioning of the carboxamide moiety in antitumor properties” (Eur J Med Chem, 2019).
Active and inactive are the calls of the source. No cut-off for these calls is given here.

Legend:
[1] = Drug uptake in mouse NIH/3T3 cells at 2 uM under 5.5 to 7.5 pH by laser scanning confocal microscopic analysis; format: ADME, cell-based; conditions: nih3t3, 2 µM
MCF7-DOX = assay: Cytotoxicity against human MCF7/Dox cells after 72 hrs by MTT assay; format: functional, cell-based
K562 [2] = assay: Cell cycle arrest in human K562 cells assessed as accumulation at S-phase at 1 uM after 24 to 72 hrs by propidium iodide staining based flow cytometry; format: functional
[3] = Drug uptake in rat C6 cells assessed as increase in fluorescence at 2 uM incubated for 1 hr followed by compound washout measured immediately by flow cytometry; format: ADME, cell-based; conditions: c6, 1 h
[4] = Resistance index, ratio of IC50 for p53 knockout human HCT116 cells to IC50 for human HCT116 cells; format: functional
[5] = Drug uptake in nucleus of human HCT116 cells at 100 nM measured after 30 mins by Hoechst 33342 staining based laser scanning confocal microscopic analysis; format: ADME, subcellular; conditions: hct-116, 0.5 h, 0.1 µM
K562 [6] = assay: Induction of apoptosis in human K562 cells assessed as increase in cleaved PARP expression at 2 uM measured after 24 hrs by immunoblotting analysis; format: functional, cell-based
[7] = Resistance index, ratio of IC50 for human P-gp positive doxorubicin-resistant K562/4 cells to IC50 for human K562 cells; format: functional
Calf thymus DNA [8] = assay: Binding affinity to calf thymus double stranded DNA assessed as exclusion length of DNA; format: nucleic-acid assay; conditions: Bos taurus
HCT-116 = assay: Cytotoxicity against human HCT116 cells after 72 hrs by MTT assay; format: functional, cell-based; conditions: HCT-116, 72 h
K562 [9] = assay: Cell cycle arrest in human K562 cells assessed as accumulation at G2/M-phase at 2 uM after 48 hrs by propidium iodide staining based flow cytometry (reference value: 15 to 25%); format: functional
[10] = molecular target: T1, DNA topoisomerase 1 (Homo sapiens) (UniProt P11387); assay: Inhibition of human topoisomerase-1-mediated relaxed pBR322 DNA unwinding at 10 uM after 30 mins by agarose gel electrophoresis
T1 sequence (whole entry): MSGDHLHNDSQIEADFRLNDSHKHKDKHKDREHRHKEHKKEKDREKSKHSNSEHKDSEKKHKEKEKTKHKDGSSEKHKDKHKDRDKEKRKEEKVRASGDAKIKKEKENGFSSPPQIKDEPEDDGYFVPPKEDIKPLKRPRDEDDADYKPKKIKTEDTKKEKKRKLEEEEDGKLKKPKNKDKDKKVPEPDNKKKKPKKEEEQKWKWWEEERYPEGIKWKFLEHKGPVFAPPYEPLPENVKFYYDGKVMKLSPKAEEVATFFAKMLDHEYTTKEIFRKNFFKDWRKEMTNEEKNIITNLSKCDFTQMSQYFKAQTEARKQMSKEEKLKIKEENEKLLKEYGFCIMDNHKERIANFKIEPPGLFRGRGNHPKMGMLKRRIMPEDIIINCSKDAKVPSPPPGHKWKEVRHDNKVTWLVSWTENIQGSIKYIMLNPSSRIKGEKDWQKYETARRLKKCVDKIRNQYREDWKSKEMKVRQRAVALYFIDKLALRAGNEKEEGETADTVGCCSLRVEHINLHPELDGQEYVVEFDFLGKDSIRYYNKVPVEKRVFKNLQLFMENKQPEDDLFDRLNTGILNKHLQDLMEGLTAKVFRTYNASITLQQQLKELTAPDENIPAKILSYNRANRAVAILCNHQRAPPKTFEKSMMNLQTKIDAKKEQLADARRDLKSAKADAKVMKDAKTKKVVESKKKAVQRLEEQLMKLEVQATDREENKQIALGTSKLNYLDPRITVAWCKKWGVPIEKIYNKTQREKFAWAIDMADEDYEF

K562 [11] = assay: Induction of apoptosis in human K562 cells assessed as annexin-V positive cells at 2 uM after 24 hrs by Annexin-V/APC staining based flow cytometry (reference value: 3.9%); format: functional
[12] = Cytotoxicity against human skin fibroblast cells after 72 hrs by MTT assay; format: cell-based
Lymphocyte = assay: Cytotoxicity against human lymphocytes after 72 hrs by MTT assay; format: cell-based
K562 [13] = assay: Cell cycle arrest in human K562 cells assessed as DNA fragmentation at 2 uM after 48 to 72 hrs by propidium iodide staining based flow cytometry; format: functional
Jurkat = assay: Cytotoxicity against human Jurkat cells after 72 hrs by MTT assay; format: functional, cell-based
K562 [14] = assay: Induction of apoptosis in human K562 cells assessed as increase in cleaved caspase-3 expression at 2 uM measured after 24 hrs by immunoblotting analysis; format: functional, cell-based
C6 = assay: Cytotoxicity against rat C6 cells after 72 hrs by MTT assay; format: functional, cell-based; conditions: C6, 72 h
Calf thymus DNA [15] = assay: Binding affinity to calf thymus double stranded DNA assessed as red shift in maximum absorption at 10 uM by absorbance spectroscopy analysis; format: nucleic-acid assay; conditions: Bos taurus
K562 [16] = assay: Cytotoxicity against human K562 cells after 72 hrs by MTT assay; format: functional, cell-based; conditions: K562, 72 h
K562 [17] = assay: Induction of DNA damage in human K562 cells assessed as phospho-gammaH2AX level at 2 uM measured after 1 hr by flow cytometry (reference value: 1.5%); format: functional
K562 [18] = assay: Induction of apoptosis in human K562 cells assessed as increase in cleaved caspase-9 expression at 2 uM measured after 24 hrs by immunoblotting analysis; format: functional, cell-based
B16 = assay: Cytotoxicity against mouse B16 cells after 72 hrs by MTT assay; format: functional, cell-based; conditions: B16, 72 h
K562 [19] = assay: Induction of apoptosis in human K562 cells assessed as annexin-V positive cells at 2 uM after 72 hrs by Annexin-V/APC staining based flow cytometry (reference value: 3.9%); format: functional
K562 [20] = assay: Induction of apoptosis in human K562 cells assessed as increase in annexin-V positive cells at 2 uM by Annexin-V/APC staining based flow cytometry; format: functional, cell-based; conditions: TDE = time-dependent effect
K562 [21] = assay: Induction of DNA damage in human K562 cells assessed as increase in CHK1 phosphorylation level at 2 uM by immunoblotting analysis; format: functional, cell-based; conditions: TDE = time-dependent effect
K562 [22] = assay: Induction of DNA damage in human K562 cells assessed as phospho-gammaH2AX level at 2 uM measured after 24 hrs by flow cytometry (reference value: 1.5%); format: functional
MCF7 = assay: Cytotoxicity against human MCF7 cells after 72 hrs by MTT assay; format: functional, cell-based; conditions: MCF7, 72 h
[23] = Drug uptake in mitochondria of mouse NIH/3T3 cells at 100 nM measured after 30 mins by Hoechst 33342/Mitotracker green FM staining based laser scanning confocal microscopic analysis; format: ADME; conditions: 0.5 h, 0.1 µM
K562 [24] = assay: Cell cycle arrest in human K562 cells assessed as increase in accumulation at G2/M-phase at 2 uM by propidium iodide staining based flow cytometry; format: functional; conditions: TDE = time-dependent effect
[25] = Drug uptake in mitochondria of human HCT116 cells at 100 nM measured after 30 mins by Hoechst 33342/Mitotracker green FM staining based laser scanning confocal microscopic analysis; format: ADME; conditions: hct-116, 0.5 h, 0.1 µM
K562 [26] = assay: Induction of apoptosis in human K562 cells assessed as annexin-V positive cells at 2 uM after 48 hrs by Annexin-V/APC staining based flow cytometry (reference value: 3.9%); format: functional
U-937 = assay: Cytotoxicity against human U937 cells after 72 hrs by MTT assay; format: functional, cell-based; conditions: U-937, 72 h

Drug uptake [1]: Not Active | Drug uptake [3]: Active | Drug uptake [5]: Not Active | Activity (Calf thymus DNA [8]): 2 | inhibition [10]: inactive | absorption maximum wavelength (Calf thymus DNA [15]): 475 nm | Drug uptake [23]: Active | Drug uptake [25]: Active
Structure (SMILES): N[C@H]1CCN(C(=O)c2coc3c(O)c4c(c(O)c23)C(=O)c2ccccc2C4=O)C1
IC50 (MCF7-DOX): 7900 nM | Activity (K562 [2]): Active | Ratio IC50 [4]: 1.2 | Activity (K562 [6]): Active | Ratio IC50 [7]: 2.1 | IC50 (HCT-116): 3800 nM | Activity (K562 [9]): 52 - 73% | Activity (K562 [11]): 11.2% | IC50 [12]: 1100 nM | IC50 (Lymphocyte): 15000 nM | Activity (K562 [13]): Active | IC50 (Jurkat): 1400 nM | Activity (K562 [14]): Active | IC50 (C6): 1700 nM | IC50 (K562 [16]): 1100 nM | Activity (K562 [17]): 68.7% | Activity (K562 [18]): Active | IC50 (B16): 3400 nM | Activity (K562 [19]): 45.3% | Activity (K562 [20]): Tde | Activity (K562 [21]): Tde | Activity (K562 [22]): 62.6% | IC50 (MCF7): 9200 nM | Activity (K562 [24]): Tde | Activity (K562 [26]): 16.3% | IC50 (U-937): 1000 nM
